Read-outs that look alike come from different tables or passages of the source. Numbered stars: 1 amine (or outer) side, 2 acyl side, 3 side chain; on linkers, the order of the positions; unused ones are H or OH. Bridge positions count the residues as written; N and C are the ends. Square brackets hold non-standard residues; d marks the D form. Peptide text beside a SMILES is read from it. I, II: the chains in the order shown. Phe(3-CONH2) = NC(=O)c1cccc(C[C@H](N)C(=O)O)c1; Phe(4-F) = N[C@@H](Cc1ccc(F)cc1)C(=O)O; 2Nal = N[C@@H](Cc1ccc2ccccc2c1)C(=O)O; Diglycolyl = O=C(COCC(=O)[*:2])[*:1]; NMeR = CN[C@@H](CCCNC(=N)N)C(=O)O; Tic = O=C(O)[C@@H]1Cc2ccccc2CN1; β3hE = N[C@@H](CCC(=O)O)CC(=O)O; Cit = NC(=O)NCCC[C@H](N)C(=O)O; NMeK = CN[C@@H](CCCCN)C(=O)O; Pen = CC(C)(S)[C@H](N)C(=O)O
Columns and labels:
[1] = Simulated Intestinal Fluid (SIF) Stability Assay; type: in vitro ADME, porcine; conditions: pig, pH 6.5, Table 3-B, > means experiment was stopped at that time and half life was not reached, read-out: Stabilty SIF t1/2
Protocol: Studies were carried out in simulated intestinal fluid (SIF) to evaluate intestinal stability of the peptide molecules of the instant invention. To prepare the SIF reagent, blank FASSIF was prepared by dissolving 0.348 g NaOH, 3.954 g sodium phosphate monobasic monohydrate and 6.186 g NaCl in a final volume of 1 liter water (final pH=6.5). To this solution, 24 g porcine pancreatin (Sigma catalog P7545) was added and stirred for 30 minutes (final pancreatin concentration is 2.4%). The solution was filtered through a cheese cloth and a No. 1 Whatman filter, and 10 ml aliquots were stored at −70° C. To run the reaction, a 10 ml aliquot was thawed at 37° C., and 125 ul aliquots were removed and mixed with an equal volume of blank FASSIF. The peptide stock solution (10 mM in 100% DMSO) was diluted 75-fold in blank FASSIF. A 50 μl aliquot of the diluted peptide was combined with 125 μl pancreatin (2.4%) and 125 μl blank FASSIF to yield final concentrations of 1% pancreatin and 22 μM peptide. The reactions were incubated at 37° C., and at various time points 50 μl aliquots were removed and added to 200 μl of quench solution containing 50% acetonitrile, 50% methanol, 5% formic acid, and 1 μg/ml internal standard. The quenched samples were centrifuged at 10,000 rpm for 10 minutes, and the supernatants were analyzed by LCMS/MS. The percent remaining at each time point was calculated based on the peak area response ratio of test to compound to internal standard. Half-lives were calculated by fitting to a first-order exponential decay equation using GraphPad.

[2] = biological target: α4β7 (Homo sapiens, UniProt P13612+P26010); assay: α4β7-MAdCAM Cell Adhesion Assay (RPMI 8866 human cells); type: cell-based; set-up: host or cells: RPMI 8866 human B lymphoblastoid cells; conditions: Table 3-B, Potency (α4β7); range classes; read-out: α4β7 cell (Hu) IC50
Procedure, shortened: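 Washed RPMI 8866 cells (200,000/well) in DMEM with 0.1% BSA, 10 mM HEPES pH 7, 1 mM MnCl2 adhered to rh MAdCAM-1/Fc-coated wells with serially diluted peptides, 30-45 min at 37 °C. After three washes, bound cells quantified by MTT, A570, cell-free background subtracted for dose response.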

[3] = simulated intestinal fluid (SIF) with 1% porcine pancreatin

Sequence of α4β7 (P13612 34-1032): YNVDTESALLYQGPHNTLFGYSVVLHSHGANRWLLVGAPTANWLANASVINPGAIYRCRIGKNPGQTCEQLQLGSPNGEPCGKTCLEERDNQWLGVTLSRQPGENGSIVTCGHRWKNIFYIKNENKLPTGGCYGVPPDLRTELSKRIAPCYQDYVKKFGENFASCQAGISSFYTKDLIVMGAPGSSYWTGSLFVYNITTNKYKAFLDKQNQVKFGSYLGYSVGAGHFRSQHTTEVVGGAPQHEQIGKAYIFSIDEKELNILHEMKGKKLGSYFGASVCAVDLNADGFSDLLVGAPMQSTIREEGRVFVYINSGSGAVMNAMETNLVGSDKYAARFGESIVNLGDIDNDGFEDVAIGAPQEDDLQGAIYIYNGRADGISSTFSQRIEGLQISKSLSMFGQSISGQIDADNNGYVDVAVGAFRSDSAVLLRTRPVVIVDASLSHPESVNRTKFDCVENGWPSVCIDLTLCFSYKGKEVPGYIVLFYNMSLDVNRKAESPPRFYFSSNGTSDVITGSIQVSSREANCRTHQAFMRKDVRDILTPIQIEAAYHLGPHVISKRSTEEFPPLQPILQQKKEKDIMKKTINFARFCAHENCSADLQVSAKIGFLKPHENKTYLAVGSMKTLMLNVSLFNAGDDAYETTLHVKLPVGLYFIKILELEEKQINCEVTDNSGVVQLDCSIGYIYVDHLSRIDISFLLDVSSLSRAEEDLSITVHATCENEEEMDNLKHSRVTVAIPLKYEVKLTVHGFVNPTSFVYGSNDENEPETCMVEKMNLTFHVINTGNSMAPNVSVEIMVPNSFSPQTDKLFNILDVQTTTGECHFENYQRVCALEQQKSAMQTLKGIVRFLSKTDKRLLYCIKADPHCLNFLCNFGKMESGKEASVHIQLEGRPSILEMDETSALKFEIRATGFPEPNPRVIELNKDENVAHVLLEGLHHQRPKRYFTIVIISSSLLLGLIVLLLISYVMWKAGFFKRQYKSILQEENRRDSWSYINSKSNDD
Sequence of α4β7 (P26010 20-798): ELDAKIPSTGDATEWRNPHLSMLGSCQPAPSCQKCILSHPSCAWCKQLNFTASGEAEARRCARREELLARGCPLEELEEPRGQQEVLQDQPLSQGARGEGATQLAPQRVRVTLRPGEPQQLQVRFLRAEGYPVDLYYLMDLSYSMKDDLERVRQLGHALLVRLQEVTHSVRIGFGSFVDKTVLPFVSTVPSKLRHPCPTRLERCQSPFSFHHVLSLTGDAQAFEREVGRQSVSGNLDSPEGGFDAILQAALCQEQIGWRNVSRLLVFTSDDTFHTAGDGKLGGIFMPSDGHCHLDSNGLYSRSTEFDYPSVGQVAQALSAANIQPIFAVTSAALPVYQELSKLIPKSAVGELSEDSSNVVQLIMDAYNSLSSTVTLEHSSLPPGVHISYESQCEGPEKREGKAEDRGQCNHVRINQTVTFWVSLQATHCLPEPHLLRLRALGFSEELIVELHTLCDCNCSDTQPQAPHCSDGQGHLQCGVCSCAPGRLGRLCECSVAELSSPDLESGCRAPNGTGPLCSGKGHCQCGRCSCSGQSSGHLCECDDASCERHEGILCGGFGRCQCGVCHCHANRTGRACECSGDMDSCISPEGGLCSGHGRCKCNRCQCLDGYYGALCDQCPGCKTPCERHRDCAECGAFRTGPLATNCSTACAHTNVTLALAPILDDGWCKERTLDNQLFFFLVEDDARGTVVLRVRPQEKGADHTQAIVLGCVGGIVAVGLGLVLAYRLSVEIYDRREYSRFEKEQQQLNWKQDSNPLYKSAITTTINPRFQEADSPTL

Row | Structure (SMILES) | half-life at 22 μM [1, 3] [h] | IC50 [2] [nM] | half-life at 22 μM ([1]; simulated intestinal fluid (SIF) with porcine pancreatin) [h]
1 | CC(=O)N[C@@H]1C(=O)N(C)[C@@H](CCCNC(=N)N)C(=O)N[C@@H](CO)C(=O)N[C@@H](CC(=O)O)C(=O)N[C@@H]([C@@H](C)O)C(=O)N[C@@H](CC(C)C)C(=O)N[C@H](C(=O)N2Cc3ccccc3C[C@H]2C(=O)N[C@H](CCC(=O)O)C(=O)N[C@H](CCCCNC(=O)COCC(=O)NCCCC[C@@H](NC(=O)[C@@H](CCC(=O)O)NC(=O)[C@@H]2Cc3ccccc3CN2C(=O)[C@H]2NC(=O)[C@H](CC(C)C)NC(=O)[C@H]([C@@H](C)O)NC(=O)[C@H](CC(=O)O)NC(=O)[C@H](CO)NC(=O)[C@H](CCCNC(=N)N)N(C)C(=O)[C@@H](NC(C)=O)C(C)(C)SSC2(C)C)C(N)=O)C(N)=O)C(C)(C)SSC1(C)C [compound 80] (I: Ac-[Pen][NMeR]SDTL[Pen][Tic][dE][dK]-NH2 / II: Ac-[Pen][NMeR]SDTL[Pen][Tic][dE][dK]-NH2; disulfide I:1-I:7, II:1-II:7; linker I:10-II:10 via Diglycolyl) | > 3 | 50 to 100 | 
2 | CC(=O)N[C@@H]1C(=O)N(C)[C@@H](CCCNC(=N)N)C(=O)N[C@@H](CO)C(=O)N[C@@H](CC(=O)O)C(=O)N[C@@H]([C@@H](C)O)C(=O)N[C@@H](CC(C)C)C(=O)N[C@H](C(=O)N[C@@H](Cc2cccc(C(N)=O)c2)C(=O)N[C@H](CCC(=O)O)C(=O)N[C@H](CCCCNC(=O)COCC(=O)NCCCC[C@@H](NC(=O)[C@@H](CCC(=O)O)NC(=O)[C@H](Cc2cccc(C(N)=O)c2)NC(=O)[C@H]2NC(=O)[C@H](CC(C)C)NC(=O)[C@H]([C@@H](C)O)NC(=O)[C@H](CC(=O)O)NC(=O)[C@H](CO)NC(=O)[C@H](CCCNC(=N)N)N(C)C(=O)[C@@H](NC(C)=O)C(C)(C)SSC2(C)C)C(N)=O)C(N)=O)C(C)(C)SSC1(C)C [compound 99] (I: Ac-[Pen][NMeR]SDTL[Pen][Phe(3-CONH2)][dE][dK]-NH2 / II: Ac-[Pen][NMeR]SDTL[Pen][Phe(3-CONH2)][dE][dK]-NH2; disulfide I:1-I:7, II:1-II:7; linker I:10-II:10 via Diglycolyl) |  | 100 to 500 | > 3
3 | CC(=O)N[C@@H]1C(=O)N(C)[C@@H](CCCNC(=N)N)C(=O)N[C@@H](CO)C(=O)N[C@@H](CC(=O)O)C(=O)N[C@@H]([C@@H](C)O)C(=O)N[C@@H](CC(C)C)C(=O)N[C@H](C(=O)N[C@H](Cc2ccccc2)C(=O)N[C@H](CCC(=O)O)C(=O)N[C@H](CCCCNC(=O)COCC(=O)NCCCC[C@@H](NC(=O)[C@@H](CCC(=O)O)NC(=O)[C@@H](Cc2ccccc2)NC(=O)[C@H]2NC(=O)[C@H](CC(C)C)NC(=O)[C@H]([C@@H](C)O)NC(=O)[C@H](CC(=O)O)NC(=O)[C@H](CO)NC(=O)[C@H](CCCNC(=N)N)N(C)C(=O)[C@@H](NC(C)=O)C(C)(C)SSC2(C)C)C(N)=O)C(N)=O)C(C)(C)SSC1(C)C [compound 2] (I: Ac-[Pen][NMeR]SDTL[Pen][dF][dE][dK]-NH2 / II: Ac-[Pen][NMeR]SDTL[Pen][dF][dE][dK]-NH2; disulfide I:1-I:7, II:1-II:7; linker I:10-II:10 via Diglycolyl) | > 3 | 100 to 500 | 
4 | CC(=O)N[C@@H]1C(=O)N(C)[C@@H](CCCNC(=N)N)C(=O)N[C@@H](CO)C(=O)N[C@@H](CC(=O)O)C(=O)N[C@@H]([C@@H](C)O)C(=O)N[C@@H](CC(C)C)C(=O)N[C@H](C(=O)N[C@@H](Cc2c[nH]c3ccccc23)C(=O)N[C@@H](CCC(=O)O)C(=O)O)C(C)(C)SSC1(C)C [compound 128] (Ac-[Pen][NMeR]SDTL[Pen]WE-OH; disulfide 1-7) | 3 | 50 to 100 | 
5 | CC(=O)N[C@@H]1C(=O)N(C)[C@@H](CCCNC(=N)N)C(=O)N[C@@H](CO)C(=O)N[C@@H](CC(=O)O)C(=O)N[C@@H]([C@@H](C)O)C(=O)N[C@@H](CC(C)C)C(=O)N[C@H](C(=O)N[C@@H](Cc2ccc(F)cc2)C(=O)N[C@H](CCC(=O)O)C(=O)N[C@H](CCCCNC(=O)COCC(=O)NCCCC[C@@H](NC(=O)[C@@H](CCC(=O)O)NC(=O)[C@H](Cc2ccc(F)cc2)NC(=O)[C@H]2NC(=O)[C@H](CC(C)C)NC(=O)[C@H]([C@@H](C)O)NC(=O)[C@H](CC(=O)O)NC(=O)[C@H](CO)NC(=O)[C@H](CCCNC(=N)N)N(C)C(=O)[C@@H](NC(C)=O)C(C)(C)SSC2(C)C)C(N)=O)C(N)=O)C(C)(C)SSC1(C)C [compound 107] (I: Ac-[Pen][NMeR]SDTL[Pen][Phe(4-F)][dE][dK]-NH2 / II: Ac-[Pen][NMeR]SDTL[Pen][Phe(4-F)][dE][dK]-NH2; disulfide I:1-I:7, II:1-II:7; linker I:10-II:10 via Diglycolyl) | > 3 | 25 to 50 | 
6 | CC(=O)N[C@@H]1C(=O)N(C)[C@@H](CCCNC(=N)N)C(=O)N[C@@H](CO)C(=O)N[C@@H](CC(=O)O)C(=O)N[C@@H]([C@@H](C)O)C(=O)N[C@@H](CC(C)C)C(=O)N[C@H](C(=O)N[C@@H](Cc2ccc3ccccc3c2)C(=O)N[C@H](Cc2ccc(O)cc2)C(=O)N[C@H](CCCCNC(=O)COCC(=O)NCCCC[C@@H](NC(=O)[C@@H](Cc2ccc(O)cc2)NC(=O)[C@H](Cc2ccc3ccccc3c2)NC(=O)[C@H]2NC(=O)[C@H](CC(C)C)NC(=O)[C@H]([C@@H](C)O)NC(=O)[C@H](CC(=O)O)NC(=O)[C@H](CO)NC(=O)[C@H](CCCNC(=N)N)N(C)C(=O)[C@@H](NC(C)=O)C(C)(C)SSC2(C)C)C(N)=O)C(N)=O)C(C)(C)SSC1(C)C [compound 27] (I: Ac-[Pen][NMeR]SDTL[Pen][2Nal][dY][dK]-NH2 / II: Ac-[Pen][NMeR]SDTL[Pen][2Nal][dY][dK]-NH2; disulfide I:1-I:7, II:1-II:7; linker I:10-II:10 via Diglycolyl) | > 3 | 25 to 50 | 
7 | CC(=O)N[C@@H]1C(=O)N(C)[C@@H](CCCNC(=N)N)C(=O)N[C@@H](CO)C(=O)N[C@@H](CC(=O)O)C(=O)N[C@@H]([C@@H](C)O)C(=O)N[C@@H](CC(C)C)C(=O)N[C@H](C(=O)N[C@@H](Cc2c[nH]c3ccccc23)C(=O)N(C)[C@@H](CCCCNC(=O)COCC(=O)NCCCC[C@@H](C(N)=O)N(C)C(=O)[C@H](Cc2c[nH]c3ccccc23)NC(=O)[C@H]2NC(=O)[C@H](CC(C)C)NC(=O)[C@H]([C@@H](C)O)NC(=O)[C@H](CC(=O)O)NC(=O)[C@H](CO)NC(=O)[C@H](CCCNC(=N)N)N(C)C(=O)[C@@H](NC(C)=O)C(C)(C)SSC2(C)C)C(N)=O)C(C)(C)SSC1(C)C [compound 77] (I: Ac-[Pen][NMeR]SDTL[Pen]W[NMeK]-NH2 / II: Ac-[Pen][NMeR]SDTL[Pen]W[NMeK]-NH2; disulfide I:1-I:7, II:1-II:7; linker I:9-II:9 via Diglycolyl) | > 3 | 100 to 500 | 
8 | CC(=O)N[C@@H]1C(=O)N(C)[C@@H](CCCNC(=N)N)C(=O)N[C@@H](CO)C(=O)N[C@@H](CC(=O)O)C(=O)N[C@@H]([C@@H](C)O)C(=O)N[C@@H](CC(C)C)C(=O)N[C@H](C(=O)N[C@@H](Cc2c[nH]c3ccccc23)C(=O)N[C@@H](CCC(=O)O)CC(=O)N[C@H](CCCCNC(=O)COCC(=O)NCCCC[C@@H](NC(=O)C[C@H](CCC(=O)O)NC(=O)[C@H](Cc2c[nH]c3ccccc23)NC(=O)[C@H]2NC(=O)[C@H](CC(C)C)NC(=O)[C@H]([C@@H](C)O)NC(=O)[C@H](CC(=O)O)NC(=O)[C@H](CO)NC(=O)[C@H](CCCNC(=N)N)N(C)C(=O)[C@@H](NC(C)=O)C(C)(C)SSC2(C)C)C(N)=O)C(N)=O)C(C)(C)SSC1(C)C [compound 1] (I: Ac-[Pen][NMeR]SDTL[Pen]W[β3hE][dK]-NH2 / II: Ac-[Pen][NMeR]SDTL[Pen]W[β3hE][dK]-NH2; disulfide I:1-I:7, II:1-II:7; linker I:10-II:10 via Diglycolyl) | > 3 | 50 to 100 | 
9 | CC(=O)N[C@@H]1C(=O)N(C)[C@@H](CCCNC(=N)N)C(=O)N[C@@H](CO)C(=O)N[C@@H](CC(=O)O)C(=O)N[C@@H]([C@@H](C)O)C(=O)N[C@@H](CC(C)C)C(=O)N[C@H](C(=O)N[C@@H](Cc2c[nH]c3ccccc23)C(=O)N[C@@H](CCCNC(N)=O)C(=O)N[C@H](CCCCNC(=O)COCC(=O)NCCCC[C@@H](NC(=O)[C@H](CCCNC(N)=O)NC(=O)[C@H](Cc2c[nH]c3ccccc23)NC(=O)[C@H]2NC(=O)[C@H](CC(C)C)NC(=O)[C@H]([C@@H](C)O)NC(=O)[C@H](CC(=O)O)NC(=O)[C@H](CO)NC(=O)[C@H](CCCNC(=N)N)N(C)C(=O)[C@@H](NC(C)=O)C(C)(C)SSC2(C)C)C(N)=O)C(N)=O)C(C)(C)SSC1(C)C [compound 84] (I: Ac-[Pen][NMeR]SDTL[Pen]W[Cit][dK]-NH2 / II: Ac-[Pen][NMeR]SDTL[Pen]W[Cit][dK]-NH2; disulfide I:1-I:7, II:1-II:7; linker I:10-II:10 via Diglycolyl) | < 0.333 | 10 to 25 | 

From patent publication US9809623B2, “α4β7 peptide monomer and dimer antagonists” (Protagonist Therapeutics, Inc., priority 2014, dated 2017)
